Results on 18 compounds are retold here after US6403607B1, “Sulfonamide derivatives and drugs containing the same as the active ingredient” (priority 1998, dated 2002).

Data set [1] deals with ethanol ulcer in the gland gastric region. Put plainly: Ethanol ulcer. It is filed as in vivo. As to conditions: rats fasted 24 hours, drug oral, 99.5% ethanol 1 ml/rat after one hour, size of ulcer one hour later; for Suppression: dose not given. The procedure:
Ethanol Ulcer Rats were fasted for 24 hours and orally administered with a drug. After one hour, 99.5% ethanol (1 ml/rat) was fed through oral administration. After one hour of ethanol administration, the abdomens of the rats were dissected and the size of ulcer in the gland gastric region was measured for each rat.

In another data set the test system is Helicobacter pylori. Description: Anti-Helicobacter-pylori action (agar plate dilution MIC). It is filed as cell-based. The note with it: clinically isolated 10 bacterial strains, agar plate dilution method. The method, then: Anti-Helicobacter-pylori Action
Using clinically isolated 10 bacterial strains, the minimum inhibitory concentration (MIC) was measured according to the agar plate dilution method.

A further data set concerns the target H/K-ATPase (Oryctolagus cuniculus, UniProt P27112). Put plainly: H/K-ATPase inhibition. It is filed as biochemical. The note with it: pH 7.4, H/K-ATPase from rabbit gastric mucous membrane. The method, then:
H/K-ATPase Inhibition The inhibitory effect was measured under pH 7.4, by using H/K-ATPase isolated and purified from the rabbit gastric mucous membrane.

The subject of the next data set is gastric acid secretion. Description: Acid-secretion suppression (pyloric ligation). The data set is classed as in vivo, Rats. As to conditions: pyloric region ligated, drug to the duodenum, gastric juice after four hours, total acidity by titration; dose not given. The procedure: Acid-secretion Suppression Rats were fasted for 24 hours and the abdomens of the rats were dissected under anesthesia with ether. The pyloric region was ligated and a drug was administered to the duodenum. After four hours, the stomach was removed and the gastric juice was collected to evaluate the acid-secretion suppresssing effects by measuring the total acidity of the gastric juice through titration.

In a further data set the test system is rat red blood cell. Put plainly: Hemolytic action. It is filed as cell-based. As to conditions: 10% rat red blood cell stock, 1% DMSO containing saline, 30 minutes at 37° C., absorbance 540 nm. The procedure: Hemolytic Action […] After incubation for 30 minutes at, 37° C., the mixture was centrifugally separated and the supernatant was obtained. The absorbance (540 nm) of the supernatant was measured. The hemolysis ratio was calculated.

[2] abbreviates: Helicobacter pylori, read-out: MIC.

Structures are written as SMILES. ≈ marks a conversion by molar mass, not a printed value. Where two headings read alike, the source gives them in different places. Some results are limits rather than exact numbers.

Chain of H/K-ATPase (P27112 whole entry): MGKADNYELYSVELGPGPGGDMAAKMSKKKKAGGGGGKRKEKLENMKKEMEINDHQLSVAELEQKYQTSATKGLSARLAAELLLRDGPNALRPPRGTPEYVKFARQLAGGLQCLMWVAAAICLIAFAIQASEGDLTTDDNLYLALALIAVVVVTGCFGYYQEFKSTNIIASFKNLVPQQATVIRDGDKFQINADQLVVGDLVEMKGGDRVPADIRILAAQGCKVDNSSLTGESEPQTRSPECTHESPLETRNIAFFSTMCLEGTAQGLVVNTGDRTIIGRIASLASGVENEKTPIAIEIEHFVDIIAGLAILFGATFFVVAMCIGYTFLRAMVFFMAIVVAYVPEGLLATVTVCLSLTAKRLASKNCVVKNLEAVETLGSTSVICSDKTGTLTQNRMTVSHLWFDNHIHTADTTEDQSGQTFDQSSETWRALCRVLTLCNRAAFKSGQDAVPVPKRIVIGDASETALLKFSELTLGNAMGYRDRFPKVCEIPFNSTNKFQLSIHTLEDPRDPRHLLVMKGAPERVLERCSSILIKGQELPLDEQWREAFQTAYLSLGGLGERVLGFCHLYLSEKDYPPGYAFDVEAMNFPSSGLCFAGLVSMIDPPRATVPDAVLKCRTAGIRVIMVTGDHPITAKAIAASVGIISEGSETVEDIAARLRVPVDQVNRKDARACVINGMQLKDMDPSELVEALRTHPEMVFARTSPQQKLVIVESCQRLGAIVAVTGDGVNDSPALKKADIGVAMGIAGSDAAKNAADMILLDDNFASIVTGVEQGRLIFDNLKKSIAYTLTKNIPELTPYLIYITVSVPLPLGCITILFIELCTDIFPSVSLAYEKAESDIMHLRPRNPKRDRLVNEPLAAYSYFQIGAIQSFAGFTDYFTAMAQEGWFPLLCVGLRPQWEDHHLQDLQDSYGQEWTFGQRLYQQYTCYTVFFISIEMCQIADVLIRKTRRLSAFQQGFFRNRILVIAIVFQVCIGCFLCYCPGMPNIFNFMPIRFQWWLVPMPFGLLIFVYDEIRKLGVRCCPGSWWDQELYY
Chain of H/K-ATPase (P18597 whole entry partner): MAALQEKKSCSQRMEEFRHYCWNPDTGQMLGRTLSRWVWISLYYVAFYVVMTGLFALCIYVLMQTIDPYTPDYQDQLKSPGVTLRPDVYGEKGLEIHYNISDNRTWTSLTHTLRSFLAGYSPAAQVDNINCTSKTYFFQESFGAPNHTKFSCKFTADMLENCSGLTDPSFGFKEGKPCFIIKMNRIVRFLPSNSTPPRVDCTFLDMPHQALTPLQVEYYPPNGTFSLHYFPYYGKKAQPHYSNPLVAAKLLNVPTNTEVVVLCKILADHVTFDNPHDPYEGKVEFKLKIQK

The ED50 is the dose at which the effect has come halfway, by size or by number of responders. As usually defined, the MIC is the least concentration at which growth counts as inhibited. What is called IC50 is the midpoint of a concentration-inhibition curve. A high value points to weaker potency in that assay. `NCCOCCN(c1ccccc1NCCOc1ccc(Cl)cc1)S(=O)(=O)c1ccc(Cl)cc1.O=C(O)C(O)C(O)C(=O)O` [Example 4, N-[2-(2-Aminoethoxy)ethyl]-N-(4-chlorobenzenesulfonyl)-N′-[2-(4-chlorophenoxy)ethyl]-o-phenylenediamine Tartaric Acid Salt] had a Suppression in data set [1] of 85%. Further, in data set [1] (read-out: ED50), the ED50 amounted to 5.3 mg/kg. Further, the MIC with Helicobacter pylori (setting [2]) was 25 to 50 µg/mL. For the same compound, it took 7.4 µM to reach half-maximal inhibition on H/K-ATPase (IC50).

For `NCCCCCN(c1ccccc1NCCOc1ccc(Cl)cc1)S(=O)(=O)c1ccc(Cl)cc1` [Example 13, N-(5-Aminopenthyl)-N-(4-chlorobenzenesulfonyl)-N′-[2-(4-chlorophenoxy)ethyl]-o-phenylenediamine], in the data set on gastric acid secretion, the Suppression was determined as 82%. Also, the MIC against Helicobacter pylori was in the range of 25 to 50 µg/mL.

A word on the HC50: it is the concentration that lyses half of the red blood cells. Read a high HC50 as weaker haemolysis. For `CCCCS(=O)(=O)N(CCOCCN)c1ccccc1NCCOc1ccc(Cl)cc1` [Example 21], the Suppression in the data set with gastric acid secretion is 76%; in data set [1] it was 99%. The MIC with Helicobacter pylori (setting [2]) fell in the range of 50 to 100 µg/mL (≈ 106 to 213 µM). For the same compound, in the data set on rat red blood cell, the HC50 stood at 71.1 µg/mL. For the same compound, half-maximal inhibition against H/K-ATPase (IC50) required 49.4 µM.

`CS(=O)(=O)N(CCOCCN)c1ccccc1NCCOc1ccc(Cl)cc1` [Example 22, N-[2-(2-Amino)ethoxyethyl]-N-(methanesulfonyl)-N′-[2-(4-chloro)phenoxyethyl]-o-phenylenediamine] returned an HC50 with rat red blood cell of 55.7 µg/mL. The same compound gave an IC50 against H/K-ATPase of 190 µM.

`CCCS(=O)(=O)N(CCOCCN)c1ccccc1NCCOc1ccc(Cl)cc1` [Example 24, N-[2-(2-Amino)ethoxyethyl]-N-(1-propanesulfonyl)-N′-[2-(4-chlorophenoxy)ethyl]-o-phenylenediamine] showed a concentration for 50% haemolysis (HC50) in the data set on rat red blood cell of 99.6 µg/mL. The same compound registered an IC50 against H/K-ATPase of 130 µM.

Take `CC(C)S(=O)(=O)N(CCOCCN)c1ccccc1NCCOc1ccc(Cl)cc1` [Example 25, N-[2-(2-Amino)ethoxyethyl]-N-(2-propanesulfonyl)-N′-[2-(4-chlorophenoxy)ethyl]-o-phenylenediamine]: the HC50 with rat red blood cell was determined as 120 µg/mL. Besides, at H/K-ATPase, the IC50 worked out at 140 µM.

`CCCCCCCCS(=O)(=O)N(CCOCCN)c1ccccc1NCCOc1ccc(Cl)cc1` [Example 26, N-[2-(2-Amino)ethoxyethyl]-N-(1-octanesulfonyl)-N′-[2-(4-chlorophenoxy)ethyl]-o-phenylenediamine]: the values for the Suppression (with gastric acid secretion; in data set [1]) were 82% and 98%, respectively. Besides, on H/K-ATPase, the IC50 stood at 2.1 µM.

As to `NCCOCCN(c1ccccc1NCCOc1ccc(Cl)cc1)S(=O)(=O)c1ccc(Br)cc1` [Example 43, N-[2-(2-Amino)ethoxyethyl]-N-(4-bromobenzenesulfonyl)-N′-[2-(4-chlorophenoxy)ethyl]-o-phenylenediamine], the Suppression worked out at 80% with gastric acid secretion and 78% in data set [1]. In addition, in the data set with rat red blood cell, the HC50 was >100 µg/mL.

Compound `NCCOCCN(c1ccccc1NCCOc1ccc(Cl)cc1)S(=O)(=O)c1ccc(I)cc1` [Example 45, N-[2-(2-Amino)ethoxyethyl]-N-(4-iodobenzenesulfonyl)-N′-[2-(4-chlorophenoxy)ethyl]-o-phenylenediamine] gave a Suppression in the data set on gastric acid secretion of 80%.

In the data set with gastric acid secretion, `NCCOCCN(c1ccccc1NCCCOc1ccc(Cl)cc1)S(=O)(=O)c1ccc(Cl)cc1` [Example 61, N-[2-(2-Amino)ethoxyethyl]-N-(4-chlorobenzenesulfonyl)-N′-[3-(4-chlorophenoxy)propyl]-o-phenylenediamine] gave a Suppression of 87%.

Take `CN(CCOc1ccc(Cl)cc1)c1ccccc1N(CCOCCN)S(=O)(=O)c1ccc(Cl)cc1` [Example 68]: the Suppression in the data set with gastric acid secretion came out at 83%; in data set [1], 94%.

In the case of `NCCOCCN(c1ccccc1N(CCOc1ccc(Cl)cc1)Cc1ccccc1)S(=O)(=O)c1ccc(Cl)cc1` [Example 70, N-[2-(2-Amino)ethoxyethyl]-N-(4-chlorobenzenesulfonyl)-N′-benzyl-N′-[2-(4-chlorophenoxy)ethyl]-o-phenylenediamine], the values for the Suppression (in the data set on gastric acid secretion; in data set [1]) were 81% and 96%, respectively. For the same compound, the MIC with Helicobacter pylori (setting [2]) was 6.25 to 12.5 µg/mL (≈ 10.2 to 20.3 µM). On H/K-ATPase, this compound came in with an IC50 of 1.1 µM.

With `O=S(=O)(c1ccc(Cl)cc1)N(CCC1CCCCN1)c1cccnc1NCCNc1ccc(Cl)cc1` (stereo not drawn) [Example 95], the Suppression came to 90% in the data set on gastric acid secretion and 99% in data set [1].

Take `NCCOCCN(c1ccccc1N1CCN(c2ccc(Cl)cc2)CC1)S(=O)(=O)c1ccc(Cl)cc1` [Example 131, 2-[4-(4-Chlorophenyl)-1-piperazino]-1-[N-[2-(2-aminoethoxy)ethyl]-N-(4-chlorobenzenesulfonyl)]aminobenzene]: the Suppression with gastric acid secretion was determined as 89%.

Turning to `NCCOCCN(c1ccccc1N1CCCN(c2ccc(Cl)cc2)CC1)S(=O)(=O)c1ccc(Cl)cc1` [Example 134, 2-[4-(4-Chlorophenyl)-1-homopiperazino]-1-[N-[2-(2-aminoethoxy)ethyl]-N-(4-chlorobenzenesulfonyl)]aminobenzene], the Suppression in the data set with gastric acid secretion was 87%; in data set [1], 98%.

In the data set with gastric acid secretion, `NCCOCCN(c1cccnc1N1CCN(c2ccc(Cl)cc2)CC1)S(=O)(=O)c1ccc(Cl)cc1` [Example 137, 2-[4-(4-Chlorophenyl)-1-piperazino]-3-[N-[2-(2-aminoethoxy)ethyl]-N-(4-chlorobenzenesulfonyl)]aminopyridine] came in with a Suppression of 76%.

As to `NCCOCCN(c1cccc2c1N(CCOc1ccc(Cl)cc1)CCC2)S(=O)(=O)c1ccc(Cl)cc1` [Example 140, 8-[N-[2-(2-Aminoethoxy)ethyl]-N-(4-chlorobenzenesulfonyl)]amino-1-[2-(4-chlorophenoxy)ethyl]-1,2,3,4-tetrahydroquinone], the Suppression amounted to 85% in the data set with gastric acid secretion and 94% in data set [1]. In addition, 2 µM corresponded to half-maximal inhibition against H/K-ATPase (IC50).

For `NCCOCCN(c1ccccc1Oc1ccc(Cl)cc1)S(=O)(=O)c1ccc(Cl)cc1` [Example 144, 1-[N-[2-(2-Aminoethoxy)ethyl]-N-(4-chlorobenzenesulfonyl)]-2-(4-chlorophenoxy)aniline], the MIC in the data set on Helicobacter pylori (setting [2]) fell in the range of 25 to 50 µg/mL (≈ 51.9 to 104 µM). The same compound yielded an IC50 on H/K-ATPase of 11.4 µM.
